Residues, ends and D or L forms follow the SMILES beside them. No end group written: not given here. *: point of attachment. Biotin = O=C1N[C@H]2[C@H](CS[C@H]2CCCCC(=O)*)N1

The first experiment deals with T1, human insulin receptor (HIR) (Homo sapiens, UniProt P06213).
T1 construct: made in house
T1 sequence (P06213 28-758 limits assumed): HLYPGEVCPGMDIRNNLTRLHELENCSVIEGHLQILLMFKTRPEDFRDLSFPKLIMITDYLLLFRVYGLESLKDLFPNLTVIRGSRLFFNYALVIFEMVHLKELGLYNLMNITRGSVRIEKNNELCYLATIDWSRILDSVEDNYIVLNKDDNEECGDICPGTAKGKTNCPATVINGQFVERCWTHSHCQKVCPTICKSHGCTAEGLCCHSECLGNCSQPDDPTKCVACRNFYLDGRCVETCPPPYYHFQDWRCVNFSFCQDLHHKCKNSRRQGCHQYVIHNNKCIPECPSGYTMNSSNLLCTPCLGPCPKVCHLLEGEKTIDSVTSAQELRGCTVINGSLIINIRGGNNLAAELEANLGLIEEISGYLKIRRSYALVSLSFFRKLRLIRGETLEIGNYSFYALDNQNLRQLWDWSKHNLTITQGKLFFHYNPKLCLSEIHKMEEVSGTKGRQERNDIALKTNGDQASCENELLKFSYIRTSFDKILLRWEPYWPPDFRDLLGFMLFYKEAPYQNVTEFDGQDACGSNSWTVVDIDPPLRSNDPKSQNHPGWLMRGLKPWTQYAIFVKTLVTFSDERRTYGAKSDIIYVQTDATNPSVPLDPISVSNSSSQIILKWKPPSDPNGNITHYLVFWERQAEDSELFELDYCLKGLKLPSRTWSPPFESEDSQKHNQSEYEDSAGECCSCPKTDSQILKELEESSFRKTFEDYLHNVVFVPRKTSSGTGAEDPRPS
T1 sequence (P06213 763-1382 limits assumed): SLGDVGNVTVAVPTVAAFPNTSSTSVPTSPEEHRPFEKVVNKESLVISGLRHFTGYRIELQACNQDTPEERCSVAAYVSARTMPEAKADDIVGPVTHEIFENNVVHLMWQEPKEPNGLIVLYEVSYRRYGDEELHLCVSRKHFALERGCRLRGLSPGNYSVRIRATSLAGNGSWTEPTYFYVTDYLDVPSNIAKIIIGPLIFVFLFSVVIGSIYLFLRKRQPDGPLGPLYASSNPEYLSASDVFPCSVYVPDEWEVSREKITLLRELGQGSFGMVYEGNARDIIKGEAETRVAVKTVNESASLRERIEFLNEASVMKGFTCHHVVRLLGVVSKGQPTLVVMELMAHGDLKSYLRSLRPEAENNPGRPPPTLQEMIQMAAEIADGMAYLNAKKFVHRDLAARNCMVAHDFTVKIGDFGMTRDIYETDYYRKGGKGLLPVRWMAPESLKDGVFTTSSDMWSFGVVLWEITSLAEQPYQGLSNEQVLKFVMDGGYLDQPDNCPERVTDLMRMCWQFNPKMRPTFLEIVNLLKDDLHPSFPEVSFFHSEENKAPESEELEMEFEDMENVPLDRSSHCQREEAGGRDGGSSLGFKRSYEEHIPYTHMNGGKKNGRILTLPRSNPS
The experiment in a line: 125I-insulin competition binding assay on solubilised purified receptor. As to conditions: read-out: Kd (µM) HIR.
In the case of `CC(C)C[C@H](NC(=O)[C@H](C)NC(=O)[C@H](CO)NC(=O)[C@H](CCC(=O)O)NC(=O)[C@H](Cc1ccccc1)NC(=O)[C@H](Cc1c[nH]c2ccccc12)NC(=O)[C@H](CCC(=O)O)NC(=O)[C@H](Cc1ccc(O)cc1)NC(=O)[C@H](Cc1ccccc1)NC(=O)[C@@H](NC(=O)CNC(=O)CNC(=O)CNC(=O)[C@H](CCCNC(=N)N)NC(=O)[C@@H](N)CCCCN)[C@@H](C)O)C(=O)N[C@@H](CCCNC(=N)N)C(=O)N[C@@H](CCCCN)C(=O)N[C@@H](Cc1c[nH]cn1)C(=O)NCC(=O)N[C@@H](C)C(=O)NCC(=O)N[C@@H](CCCCN)C(=O)N[C@@H](CCCCNC(=O)CCCC[C@@H]1SC[C@@H]2NC(=O)N[C@@H]21)C(N)=O` [Clone D110] (H-KRGGGTFYEWFESALRKHGAGKK(Biotin)-NH2), the Kd was 0.84 µM.

The subject of the next experiment is adipocytes. As to the kind of experiment: 3H-glucose uptake into adipocytes (fat cell assay, FFC). It is filed as cell-based, Mouse. On the set-up: key to FFC: 0 is no effect; + is agonist; - is antagonist.
Conditions: not given
Consider `CC(C)[C@@H](NC(=O)[C@@H](Cc1ccccc1)NC(=O)[C@@H](Cc1c[nH]c2ccccc12)NC(=O)[C@@H](CC(=O)O)NC(=O)[C@@H](Cc1ccc(O)cc1)NC(=O)[C@@H](Cc1ccccc1)NC(=O)[C@@H](CC(N)=O)NC(=O)[C@@H](CCC(=O)O)NC(=O)[C@@H](Cc1c[nH]cn1)NC(=O)[C@H](N)Cc1ccccc1)C(=O)N[C@H](CCCNC(=N)N)C(=O)N[C@H](CCC(N)=O)C(=O)N[C@@H](C(=O)N[C@H](CO)C(=O)N[C@H](CCCCN)C(=O)N[C@H](CCCCN)C(=O)O)C(C)C` [Clone S114], for which the FFC was determined as 0.

On to `CC[C@H](C)[C@H](NC(=O)[C@H](C)NC(=O)[C@H](CC(N)=O)NC(=O)[C@H](Cc1ccc(O)cc1)NC(=O)[C@H](Cc1ccccc1)NC(=O)CNC(=O)[C@H](CC(=O)O)NC(=O)[C@@H](N)CO)C(=O)N[C@@H](CCC(=O)O)C(=O)N[C@@H](CC(C)C)C(=O)N[C@@H](CC(C)C)C(=O)N[C@@H](CO)C(=O)O` [Clone S118], for which the FFC entry is “+”.

Consider `CC(C)C[C@H](NC(=O)CNC(=O)[C@H](CCC(N)=O)NC(=O)[C@H](Cc1ccccc1)NC(=O)[C@H](Cc1ccc(O)cc1)NC(=O)[C@H](CO)NC(=O)[C@H](Cc1ccc(O)cc1)NC(=O)[C@H](Cc1ccccc1)NC(=O)[C@H](CC(=O)O)NC(=O)[C@H](CO)NC(=O)[C@@H](N)Cc1c[nH]c2ccccc12)C(=O)N[C@@H](CC(=O)O)C(=O)O` [Clone S127], for which the FFC is listed as 0.

Turning to `CC(C)[C@H](NC(=O)[C@H](Cc1ccccc1)NC(=O)[C@H](Cc1c[nH]c2ccccc12)NC(=O)[C@H](CC(=O)O)NC(=O)[C@H](Cc1ccc(O)cc1)NC(=O)[C@H](Cc1ccccc1)NC(=O)[C@H](CC(N)=O)NC(=O)[C@H](CCC(=O)O)NC(=O)[C@H](Cc1c[nH]cn1)NC(=O)[C@@H](N)Cc1ccccc1)C(=O)N[C@@H](CCCNC(=N)N)C(=O)N[C@@H](CCC(N)=O)C(=O)N[C@H](C(=O)N[C@@H](CO)C(=O)N[C@@H](CCCCN)C(=O)N[C@@H](CCCCN)C(=O)N[C@@H](CNC(=O)CON)C(N)=O)C(C)C` [Clone S131], the FFC entry is given as “+”.

As to `CC(C)[C@H](NC(=O)[C@H](Cc1ccccc1)NC(=O)[C@H](Cc1c[nH]c2ccccc12)NC(=O)CNC(=O)[C@H](Cc1ccc(O)cc1)NC(=O)[C@H](Cc1ccccc1)NC(=O)[C@H](CC(N)=O)NC(=O)[C@H](CCC(=O)O)NC(=O)[C@@H](N)Cc1c[nH]cn1)C(=O)N[C@@H](CCCNC(=N)N)C(=O)N[C@@H](CCC(N)=O)C(=O)N[C@H](C(=O)N[C@@H](CO)C(=O)N[C@@H](CCCCN)C(=O)N[C@@H](CCCCN)C(=O)O)C(C)C` [Clone S137], the FFC is 0.

On to `CC(C)[C@H](NC(=O)[C@H](Cc1ccccc1)NC(=O)[C@H](Cc1c[nH]c2ccccc12)NC(=O)[C@H](CC(=O)O)NC(=O)[C@H](Cc1ccc(O)cc1)NC(=O)[C@H](Cc1ccccc1)NC(=O)[C@H](CC(N)=O)NC(=O)[C@H](CCC(=O)O)NC(=O)[C@H](Cc1c[nH]cn1)NC(=O)[C@@H](N)Cc1ccccc1)C(=O)N[C@@H](CCCNC(=N)N)C(=O)N[C@@H](CCC(N)=O)C(=O)N[C@H](C(=O)N[C@@H](CO)C(=O)N[C@@H](CCCCN)C(=O)N[C@@H](CCCCN)C(=O)NCC[C@H](NC(=O)[C@H](CCCCN)NC(=O)[C@H](CCCCN)NC(=O)[C@H](CO)NC(=O)[C@@H](NC(=O)[C@H](CCC(N)=O)NC(=O)[C@H](CCCNC(=N)N)NC(=O)[C@@H](NC(=O)[C@H](Cc1ccccc1)NC(=O)[C@H](Cc1c[nH]c2ccccc12)NC(=O)[C@H](CC(=O)O)NC(=O)[C@H](Cc1ccc(O)cc1)NC(=O)[C@H](Cc1ccccc1)NC(=O)[C@H](CC(N)=O)NC(=O)[C@H](CCC(=O)O)NC(=O)[C@H](Cc1c[nH]cn1)NC(=O)[C@@H](N)Cc1ccccc1)C(C)C)C(C)C)C(N)=O)C(C)C` [Clone S152], for which the FFC result is listed as “+”.

Regarding `CC(C)C[C@H](NC(=O)[C@H](CCC(=O)O)NC(=O)[C@H](C)NC(=O)[C@@H](NC(=O)[C@H](Cc1ccccc1)NC(=O)[C@H](Cc1c[nH]c2ccccc12)NC(=O)[C@H](CC(=O)O)NC(=O)[C@H](Cc1ccc(O)cc1)NC(=O)[C@H](Cc1ccccc1)NC(=O)[C@H](CC(N)=O)NC(=O)[C@H](C)NC(=O)[C@H](CC(N)=O)NC(=O)[C@H](CCCNC(=N)N)NC(=O)[C@H](CCC(N)=O)NC(=O)[C@H](CC(C)C)NC(=O)[C@@H](N)Cc1c[nH]c2ccccc12)C(C)C)C(=O)NCC(=O)O` [Clone S237], the FFC is reported as 0.

For the molecule `CC(C)C[C@H](NC(=O)[C@H](CCC(=O)O)NC(=O)[C@H](C)NC(=O)[C@@H](NC(=O)[C@H](Cc1ccccc1)NC(=O)[C@H](Cc1c[nH]c2ccccc12)NC(=O)[C@H](CC(=O)O)NC(=O)[C@H](Cc1ccc(O)cc1)NC(=O)[C@H](Cc1ccccc1)NC(=O)[C@H](CC(N)=O)NC(=O)[C@H](C)NC(=O)[C@H](CC(N)=O)NC(=O)[C@H](CCCNC(=N)N)NC(=O)[C@H](CCC(N)=O)NC(=O)[C@@H](N)CC(C)C)C(C)C)C(=O)NCC(=O)O` [Clone S238], the FFC is 0.

As for `CC(C)C[C@H](NC(=O)[C@H](CCC(=O)O)NC(=O)[C@H](C)NC(=O)[C@@H](NC(=O)[C@H](Cc1ccccc1)NC(=O)[C@H](Cc1c[nH]c2ccccc12)NC(=O)[C@H](CC(=O)O)NC(=O)[C@H](Cc1ccc(O)cc1)NC(=O)[C@H](Cc1ccccc1)NC(=O)[C@H](CC(N)=O)NC(=O)[C@H](C)NC(=O)[C@H](CC(N)=O)NC(=O)[C@H](CCCNC(=N)N)NC(=O)[C@@H](N)CCC(N)=O)C(C)C)C(=O)NCC(=O)O` [Clone S239], the FFC is recorded as 0.

Regarding `CC(C)C[C@@H]1NC(=O)[C@H](CO)NC(=O)[C@H](C)NC(=O)CNC(=O)CNC(=O)[C@H](Cc2ccccc2)NC(=O)[C@H](CC(C)C)NC(=O)[C@H](CCC(=O)O)NC(=O)[C@H](CCC(N)=O)NC(=O)[C@H](CC(C)C)NC(=O)[C@H](Cc2ccccc2)NC(=O)[C@@H](NC(=O)[C@H](CC(C)C)NC(=O)[C@@H]2CCCN2)CSSC[C@@H](C(=O)N[C@@H](CO)C(=O)NCC(N)=O)NC(=O)[C@H](Cc2ccc(O)cc2)NC(=O)CNC(=O)CNC1=O` [Clone S262] (HELM PEPTIDE1{P.L.C.F.L.Q.E.L.F.G.G.A.S.L.G.G.Y.C.S.G.[am]}$PEPTIDE1,PEPTIDE1,3:R3-18:R3$$$V2.0; N-terminus assumed; bridges inferred), the FFC is given as 0.

Regarding `CC[C@H](C)[C@@H]1NC(=O)[C@H](CCC(=O)O)NC(=O)[C@@H](NC(=O)[C@H](Cc2c[nH]c3ccccc23)NC(=O)[C@@H](NC(=O)[C@H](Cc2c[nH]c3ccccc23)NC(=O)[C@H](C)NC(=O)[C@H](CCCNC(=N)N)NC(=O)[C@H](CCC(=O)O)NC(=O)[C@H](CCC(N)=O)NC(=O)[C@H](CCC(=O)O)NC(=O)[C@H](CC(C)C)NC(=O)[C@@H](N)Cc2c[nH]c3ccccc23)[C@@H](C)CC)CSSC[C@@H](C(=O)N[C@@H](CCCNC(=N)N)C(=O)N[C@@H](C)C(N)=O)NC(=O)CNC(=O)[C@H](CO)NC(=O)CNC(=O)[C@H](CCC(N)=O)NC1=O` [Clone S263] (HELM PEPTIDE1{W.L.E.Q.E.R.A.W.I.W.C.E.I.Q.G.S.G.C.R.A.[am]}$PEPTIDE1,PEPTIDE1,11:R3-18:R3$$$V2.0; N-terminus assumed; bridges inferred), the FFC amounted to 0.

`CC(C)C[C@@H]1NC(=O)[C@H](CCC(=O)O)NC(=O)[C@@H](NC(=O)[C@H](CC(C)C)NC(=O)[C@@H](NC(=O)[C@H](CCCNC(=N)N)NC(=O)[C@H](CC(C)C)NC(=O)[C@@H](N)CC(=O)O)C(C)C)CSSC[C@@H](C(=O)N[C@@H](CO)C(=O)N[C@@H](CCC(=O)O)C(N)=O)NC(=O)[C@H](Cc2ccc(O)cc2)NC(=O)CNC(=O)[C@H](CC(C)C)NC(=O)[C@H](C(C)C)NC(=O)[C@H](Cc2ccc(O)cc2)NC(=O)[C@H](C)NC(=O)CNC(=O)CNC(=O)[C@H](Cc2ccccc2)NC1=O` [Clone S281] (HELM PEPTIDE1{D.L.R.V.L.C.E.L.F.G.G.A.Y.V.L.G.Y.C.S.E.[am]}$PEPTIDE1,PEPTIDE1,6:R3-18:R3$$$V2.0; N-terminus assumed; bridges inferred): the FFC was determined as 0.

In the case of EFHENFYDWFVRQVSEE [Clone S115], the FFC entry is “+”.

With FHENAYDWFVRQVSKK [Clone S219], the FFC amounted to 0.

As for FHENFADWFVRQVSKK [Clone S220], the FFC is 0.

FHENFTDWAVRQVSKK [Clone S223]: the FFC worked out at 0.

Regarding FHENFYDWFVRQVSK [Clone S158], the FFC entry is “+”.

For FQSLLEELVWGAPLFRYGTG [Clone S224], the FFC is listed as 0.

In the case of GRVDWLQRNANFYDWFVA [Clone S250], the FFC was 0.

For the molecule GRVDWLQRNANFYDWFVAE [Clone S249], the FFC was 0.

As to HDPFYSMMKSLLK [Clone S120], the FFC was determined as 0.

On to HETFYSMIRSLAK [Clone S117], for which the FFC was determined as 0.

Regarding HPPLSELKLFLIKK [Clone S124], the FFC was found to be 0.

In the case of HPSTNQMLMKLFK [Clone S123], the FFC was determined as 0.

In the case of HPTSKEIYAKLLK [Clone S122], the FFC was determined as 0.

For the molecule IQGWEPFYGWFDDWAQMFEE-NH2 [Clone S264], the FFC was determined as 0.

Regarding NSFYEALRMLSSK [Clone S121], the FFC is 0.

On to SLNFYDALQLLAKK [Clone S119], for which the FFC worked out at 0.

Turning to SSNFYQALMLLS [Clone S129], the FFC was found to be 0.

These data come from patent EP1383793B1 (priority 2000, dated 2001).
